Experimental data: PubChem BioAssay (NCI)
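Protocol summary: plate cells (96-well), add compound at 5 concentrations, incubate 48 h, interpolate endpoints linearly. Abbreviation: GI50, concentration required for 50% inhibition of growth. The concentration for full growth arrest is given as TGI.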

Key:
Assay in all cases: NCI-60 cell line screen, 48 h
786-0 renal = test system: 786-0 renal
ACHN renal = test system: ACHN renal
COLO 205 colon = test system: COLO 205 colon
HL-60(TB) leukemia = test system: HL-60(TB) leukemia
K-562 leukemia = test system: K-562 leukemia
OVCAR-5 ovarian = test system: OVCAR-5 ovarian
SK-OV-3 ovarian = test system: SK-OV-3 ovarian
SN12C renal = test system: SN12C renal
SR leukemia = test system: SR leukemia
MOLT-4 leukemia = test system: MOLT-4 leukemia

Row | Structure (SMILES) | GI50 (786-0 renal) [µM] | TGI (786-0 renal) [µM] | GI50 (ACHN renal) [µM] | TGI (ACHN renal) [µM] | GI50 (COLO 205 colon) [µM] | TGI (COLO 205 colon) [µM] | GI50 (HL-60(TB) leukemia) [µM] | TGI (HL-60(TB) leukemia) [µM] | GI50 (K-562 leukemia) [µM] | TGI (K-562 leukemia) [µM] | GI50 (OVCAR-5 ovarian) [µM] | TGI (OVCAR-5 ovarian) [µM] | GI50 (SK-OV-3 ovarian) [µM] | TGI (SK-OV-3 ovarian) [µM] | GI50 (SN12C renal) [µM] | TGI (SN12C renal) [µM] | GI50 (SR leukemia) [µM] | TGI (SR leukemia) [µM] | TGI (MOLT-4 leukemia) [µM] | GI50 (MOLT-4 leukemia) [µM]
1 | O=C1C=C(NCCNC(=S)Nc2ccccc2)c2nccc3c2c1nc1ccccc13 | 94.5 | > 100 | 38.6 | > 100 | 9.18 | > 100 | 17.4 | > 100 | 35.1 | > 100 | > 100 | > 100 | > 100 | > 100 | 23.5 | > 100 | 2.97 | > 100 | – | –
2 | O=C(O)[C@@H]1[C@H](C(=O)O)[C@H](C(=O)O)C[C@@H]1C(=O)O | – | > 100 | – | > 100 | – | > 100 | – | – | – | > 100 | – | > 100 | – | > 100 | – | > 100 | – | > 100 | > 100 | –
3 | COC(=O)C1C(O)CC(c2ccccn2)N(Cc2ccccc2)C1c1ccccn1 (stereo unspecified) | – | > 100 | – | > 100 | – | > 100 | – | 65.1 | – | > 100 | – | > 100 | – | > 100 | – | > 100 | – | – | > 100 | –
4 | CC(=O)Nc1ccc(C(=O)NN2C(=O)C(Cl)C2c2ccc([N+](=O)[O-])cc2)cc1 (stereo unspecified) | – | > 100 | – | > 100 | – | > 100 | – | > 100 | – | > 100 | – | > 100 | – | > 100 | – | > 100 | – | – | > 100 | –
5 | COc1ccc2c(c1)/C(=C\c1cccnc1)C(=O)N2 | 18.3 | 45.7 | 18.5 | 38.9 | 26.2 | > 100 | 24.7 | > 100 | 13.8 | > 100 | 24.3 | 78.5 | 20.3 | 46.5 | 7.38 | 29.4 | – | – | > 100 | 23
6 | COc1ccc(-c2cc(=O)c3c(C)cc(C)nc3[nH]2)cc1 | 58.8 | > 100 | – | > 100 | – | 42.6 | – | 35.4 | – | > 100 | – | > 100 | – | > 100 | – | > 100 | – | – | 42.9 | –
7 | CC12N=NN(c3ccc([N+](=O)[O-])cc3)C1(O)c1ccccc1C2=O (stereo unspecified) | – | > 100 | – | > 100 | – | > 100 | – | > 100 | – | – | – | – | – | > 100 | – | > 100 | – | > 100 | – | –
8 | O=C(c1ccc(Cl)cc1)c1ccc(OCCCCCCCCCCOc2ccc(C(=O)c3ccc(Cl)cc3)cc2)cc1 | – | > 100 | – | > 100 | – | > 100 | – | > 100 | – | > 100 | – | > 100 | – | > 100 | – | > 100 | – | – | > 100 | –
9 | Cc1c(S(C)(=O)=O)c(-c2cc(F)cc(N3CCN(c4ccc(NS(=O)(=O)c5ccc(N[C@H](CCN6CCC(C(=O)OCCCP(=O)(O)O)CC6)CSc6ccccc6)c(S(=O)(=O)C(F)(F)F)c5)cc4)CC3)c2)c(-c2ccc(Cl)cc2)n1C(C)C | > 100 | > 100 | > 100 | > 100 | > 100 | > 100 | – | – | – | – | > 100 | > 100 | > 100 | > 100 | > 100 | > 100 | – | – | – | –
10 | C/C(=N\O)c1cccc(Nc2cc(-n3ccnn3)c3ccccc3n2)c1 | 18.3 | 51.5 | 15 | 34 | 22.2 | 59 | – | – | 14.9 | 36.5 | 24.4 | > 100 | 30.6 | > 100 | 15.4 | 34 | – | – | 28.2 | 11.6
11 | Cn1nc(-c2ccccc2)c(C(=O)/C=C/c2ccc(F)cc2)c(N2CCCCC2)c1=O | – | 18 | – | 27.7 | – | 14.1 | – | 3.28 | – | 13 | – | – | – | 70.1 | – | > 100 | – | – | 7.09 | –
12 | COc1ccc2c(c1)C(=O)c1c-2n(CCCN=[N+]=[N-])c(=O)c2cc(N(C)C)ccc12 | 29.5 | > 100 | > 100 | > 100 | > 100 | > 100 | > 100 | > 100 | > 100 | > 100 | > 100 | > 100 | > 100 | > 100 | > 100 | > 100 | – | – | > 100 | > 100
13 | OC1c2ccccc2C2(O)C1C(c1ccccc1)C(c1ccccc1)C2(O)c1ccccc1 (stereo unspecified) | – | 31.1 | – | 29.7 | – | 30.7 | – | 31.9 | – | 50 | – | 26.7 | – | 64 | – | 32.9 | – | – | 22.8 | –
14 | Cc1ccc(S(=O)(=O)NCCNC2=CC(=O)c3nc4ccccc4c4ccnc2c34)cc1 | 20.6 | 50.2 | 22.3 | 97 | 14.3 | 52.2 | 28.1 | > 100 | 25 | > 100 | 25 | 65.4 | 33.1 | > 100 | 17.8 | 39.6 | 4.77 | > 100 | – | –
15 | O=C(/C=C/c1ccccc1)CC1OC(=O)c2ccccc21 (stereo unspecified) | – | > 100 | – | > 100 | – | > 100 | – | > 100 | – | > 100 | – | > 100 | – | > 100 | – | – | – | – | > 100 | –
16 | O=C([CH-]C(=O)c1ccccc1)c1ccccc1.O=C([CH-]C(=O)c1ccccc1)c1ccccc1.O=C([CH-]C(=O)c1ccccc1)c1ccccc1.[Nd+3].[OH3+] | 5.06 | 18.5 | 5.93 | 21.2 | 10.6 | 25.6 | 1.5 | 4.99 | 2.8 | 16.7 | 39.5 | > 100 | 5.58 | 29.3 | 11.1 | 68.8 | – | – | 12.5 | 2.24
17 | O=C(Nc1cccc([N+](=O)[O-])c1)C(=O)C(C(=O)c1ccccc1-c1ccccc1)C1OC(=O)c2ccccc21 (stereo unspecified) | – | 38.9 | – | > 100 | – | 38.1 | – | 56.5 | – | > 100 | – | 39.5 | – | > 100 | – | – | – | – | 52.4 | –
18 | O=c1[nH]c(=O)n([C@@H]2C[C@H](CO)[C@H](O)C2)cc1/C=C/Br | – | > 100 | – | > 100 | – | – | – | > 100 | – | > 100 | – | > 100 | – | > 100 | – | – | – | – | > 100 | –
